In general, IC50 refers to the concentration that inhibits the measured activity by half.

The target in test [1] is T1, PfAcAS WT (Plasmodium falciparum, UniProt C6KTB4). As to the kind of experiment: PfAcAS mode of inhibition studies (EnzChek). The test is classed as biochemical, P. falciparum. Further details: key to MoI (mode of inhibition), Kis/Kii,acetate / MoI (mode of inhibition), Ki,ATP / MoI (mode of inhibition), Kis,acetate / MoI (mode of inhibition), Ki,CoA: UC = uncompetitive; MI = mixed inhibition; C = competitive. The method, then:
(§1) Steady-state kinetic measurements were conducted at room temperature using a PheraStar plate reader (BMG). The first step of the reaction of PfAcAS, which produces inorganic pyrophosphate (PPi) that is converted to two molecules of inorganic phosphate using a pyrophosphatase enzyme, was continuously monitored using the EnzChek Phosphate Assay Kit, which gives an absorbance readout at 360 nm (Figure 4A) ([Webb, 1992]). […] By adding CoA, the reaction rapidly proceeds to the second step resulting in further release of pyrophosphate, making the EnzChek assay a suitable option to continuously monitor the activity of PfAcAS. Typical kinetic assays were carried out in clear, flat-bottom, polystyrene, 384-well plates (Greiner) in an 80 μL reaction volume containing 100 mM HEPES (pH7.4), 100 mM NaCl, 250 mM KCl, 50 mM MgCl2, 1 mM DTT, 0.004% Tween 20, 0.5 U/mL pyrophosphatase, 0.1 mM MESG, 0.5 U/mL PNP, 2 mM ATP, 2 mM acetate, 0.5 mM CoA and 5 nM recombinant PfAcAS WT or 10 nM recombinant PfAcAS A597V or T648M. Assays were performed by adding 40 μL of a 2-times concentrated substrate mixture including MESG to all wells, and the reactions started by adding 40 μL of a 2-times concentrated reaction mixture containing all other components. The reactions were carried out for 2 to 4 hr with absorbance readings at 360 nm every two to four minutes. Reaction rates were extracted from the linear phase of activity, usually using 10 to 20 points between times of 30 and 100 min of the reactions. Using a phosphate standard curve obtained under the same buffer conditions used for the PfAcAS reactions (Figure S5A), the rates were then converted to velocity per second, conversion of one nanomolar of phosphate, per nanomolar of enzyme, per second. The substrates Km values were determined by varying the concentration of one of the substrates at saturating concentration of the other two substrates. Steady-state data were fitted using the nonlinear, least-squares, curve-fitting programs of Sigma-Plot for Windows, version 14.0. Individual saturation curves were fit to Equation 1(Equation 1) v=VS/K+S where V is the maximal velocity, S is the substrate concentration and K is the Michaelis constant for the substrate (Km). Individual saturation curves displaying substrate inhibition were fit to Equation 2(Equation 2) v=VS/K+S×(1+S/Ks) where Ks is the substrate inhibition constant.
(§2) To determine the steady-state inhibition parameters and patterns associated with both inhibitors, PfAcAS activity was studied in the presence of variable concentrations of one substrate, ATP, acetate or CoA, fixed saturating concentration of the other two substrates (acetate and CoA, ATP and CoA, or ATP and acetate) and several fixed concentrations of inhibitor. Assay ready plates containing different concentrations of inhibitor were prepared using an Echo 550 acoustic dispenser (Labcyte Inc.). The assays were carried out as described in the previous section. […] For better comparison between both inhibitors and proteins, the ymin was fixed to zero and the ymax to 100. Inhibition data showing linear, competitive patterns in double-reciprocal plots were fit to Equation 4(Equation 4) v=VS/K(1+I/Ki)+S where Ki is the dissociation constant for the enzyme-inhibitor complex. Inhibition data showing linear, mixed inhibition patterns in double-reciprocal plots were fit to Equation 5(Equation 5) v=VS/K(1+I/Kis)+S(1+I/Kii) where Kis is the dissociation constant for the free enzyme-inhibitor complex and Kii is the dissociation constant for the enzyme-substrate-inhibitor complex. Inhibition data showing linear, uncompetitive patterns in double-reciprocal plots were fit to Equation 6(Equation 6) v=VS/K+S(1+I/Ki)

Test [2] concerns P. falciparum NF54-PfACS11-cKD. As to the kind of experiment: cKD compound susceptibility assay, PfACS11 cKD line. The test is classed as cell-based. The conditions noted are these: 50 nM aTc vs no aTc.
Test [3] has as its target T2, HsAcAS WT (Homo sapiens, UniProt Q9NR19).
T2 construct: made in house; host or cells: Expi293 cells (pCDNA 3.1, transient transfection)
Nature of the test: HsAcAS Rapid-Fire QQQ mass spectrometry assay. In kind it is biochemical. The conditions noted are these: for IC50: approximate Km for each substrate, read-out: IC50 (μM), AcAS HsWT. As for the experimental part:
The human form of acetyl-CoA synthetase was assayed in 100 mM HEPES (pH7.4), 100 mM NaCl, 250 mM KCl, 50 mM MgCl2, 1 mM DTT, 0.005% NP40, 400 μM ATP, 70 μM acetate, 40 μM CoA and 2 nM recombinant HsAcAS. Assay ready plates containing different concentrations of inhibitor were prepared using an Echo 550 acoustic dispenser (Labcyte Inc.), dispensing 150 nL of compound per well. Assays were conducted in a total volume of 15 μL for 30 min at room temperature before being quenched with the addition of 85 μL 1% formic acid containing 0.5 μg/mL n-Propionyl coenzyme A (Sigma P5397) as an internal standard. Reaction products were detected using a RapidFire 365 system (Agilent, Santa Clara, CA) coupled with a triple quadrupole mass spectrometer 6740 (Agilent).
The sipper was washed to minimize carryover with 0.1% TFA in deionized water followed by 0.1% TFA in acetonitrile/deionized water (95%/5%, v/v). The sipper was washed to minimize carryover with deionized water followed by acetonitrile. Aspiration time, load/wash time, elution time, and re-equilibration time were set to 600, 3000, 5000, and 500 ms, respectively, with a cycle time of approximately 10 s. The triple-quadrupole mass spectrometer with electrospray ion source was operated in positive multiple reaction monitoring (MRM) mode. The detailed setting for the mass spectrometer parameters was as follows: capillary voltage, 3000 V; gas temperature, 350°C; gas flow, 7 L/min; nebulizer, 40 psi; sheath gas temperature, 300°C′ sheath gas flow, 11 L/min; and nozzle voltage, 1500 V. The MRM transitions for acetyl-CoA as a reaction product were set as 810.1/303.1 & 810.1/428.1 (quantifier & qualifier with dwell time of 50 ms, 100V fragmentor, and collision energies of 30 & 28 eV respectively) and for n-propionyl-CoA as an internal standard as 824.2/317.2 & 824.2/428.0 (quantifier & qualifier with dwell time of 50 ms, 100V fragmentor, and collision energies of 32 & 26 eV respectively). The mass resolution window for both parental and daughter ions was set at as a unit (0.7 Da). Peak areas were integrated, and area ratios of acetyl-CoA to the internal standard (n-propionyl CoA) were used for quantitation. Data were converted to % inhibition relative to the uninhibited enzyme control and fitted to Equation 3.

In test [4] the target is T1, PfAcAS WT. As to the kind of experiment: EnzChek assay, recombinant PfAcAS WT (steady-state kinetics and IC50). In kind it is biochemical, P. falciparum. The method, then: as §1, §2
The mark [5] stands for this setting: variable ATP, saturating acetate and CoA, linear uncompetitive, read-out: Ki versus ATP.
[6] abbreviates: variable CoA, saturating ATP and acetate, read-out: Ki versus CoA.

Where two headings read alike, the source gives them in different places.

T1 sequence (C6KTB4 entry or part of it): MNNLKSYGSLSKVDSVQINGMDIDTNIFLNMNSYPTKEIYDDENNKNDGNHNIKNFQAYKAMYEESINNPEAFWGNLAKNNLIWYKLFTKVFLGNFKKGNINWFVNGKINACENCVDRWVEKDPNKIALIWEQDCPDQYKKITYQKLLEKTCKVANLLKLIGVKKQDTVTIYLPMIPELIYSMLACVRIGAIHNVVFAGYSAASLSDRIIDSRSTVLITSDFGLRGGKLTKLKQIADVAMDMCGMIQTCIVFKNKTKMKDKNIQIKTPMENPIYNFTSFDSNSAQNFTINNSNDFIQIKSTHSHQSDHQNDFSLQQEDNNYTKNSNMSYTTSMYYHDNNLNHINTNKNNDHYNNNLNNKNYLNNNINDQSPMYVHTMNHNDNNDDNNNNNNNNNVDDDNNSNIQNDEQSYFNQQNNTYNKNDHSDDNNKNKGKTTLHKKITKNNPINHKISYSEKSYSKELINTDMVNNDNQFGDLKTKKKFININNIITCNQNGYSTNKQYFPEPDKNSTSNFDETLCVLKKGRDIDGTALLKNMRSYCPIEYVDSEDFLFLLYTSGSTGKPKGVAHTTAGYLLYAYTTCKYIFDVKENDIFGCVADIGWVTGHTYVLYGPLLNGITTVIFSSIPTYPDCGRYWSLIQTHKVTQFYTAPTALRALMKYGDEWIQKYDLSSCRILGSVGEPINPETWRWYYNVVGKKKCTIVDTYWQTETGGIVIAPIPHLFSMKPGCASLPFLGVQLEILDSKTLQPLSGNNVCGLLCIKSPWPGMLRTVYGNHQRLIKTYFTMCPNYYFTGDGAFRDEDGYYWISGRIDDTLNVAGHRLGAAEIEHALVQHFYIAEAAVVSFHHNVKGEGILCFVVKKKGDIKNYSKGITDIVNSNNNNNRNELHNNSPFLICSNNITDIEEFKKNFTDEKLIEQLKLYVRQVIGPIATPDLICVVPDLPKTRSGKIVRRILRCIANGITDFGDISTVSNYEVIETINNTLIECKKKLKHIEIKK
T2 sequence (Q9NR19 whole entry): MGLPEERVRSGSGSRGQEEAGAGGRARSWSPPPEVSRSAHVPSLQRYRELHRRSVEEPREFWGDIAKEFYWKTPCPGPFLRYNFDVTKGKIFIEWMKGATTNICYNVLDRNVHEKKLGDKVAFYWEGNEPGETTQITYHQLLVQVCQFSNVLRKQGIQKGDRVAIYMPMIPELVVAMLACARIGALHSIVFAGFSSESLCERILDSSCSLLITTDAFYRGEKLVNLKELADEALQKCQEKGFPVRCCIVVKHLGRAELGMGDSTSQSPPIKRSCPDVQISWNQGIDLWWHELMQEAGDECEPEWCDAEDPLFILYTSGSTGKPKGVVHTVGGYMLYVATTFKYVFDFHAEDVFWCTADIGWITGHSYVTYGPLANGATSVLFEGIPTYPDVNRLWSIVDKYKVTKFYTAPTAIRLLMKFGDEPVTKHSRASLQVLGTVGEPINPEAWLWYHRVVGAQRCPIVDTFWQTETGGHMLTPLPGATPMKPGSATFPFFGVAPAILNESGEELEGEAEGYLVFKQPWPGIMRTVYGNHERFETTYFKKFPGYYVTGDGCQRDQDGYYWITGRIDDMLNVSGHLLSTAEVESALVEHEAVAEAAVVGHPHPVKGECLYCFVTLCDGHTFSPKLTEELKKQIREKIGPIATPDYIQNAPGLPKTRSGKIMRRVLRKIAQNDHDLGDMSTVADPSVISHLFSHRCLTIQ

As for `CCN(CC)S(=O)(=O)c1ccc(Cl)c(C(=O)Nc2ccc3nc(C)sc3c2)c1` [MMV019721], in test [1] (Table S6 (MMV019721 MoI)), the “MoI (mode of inhibition), Ki,ATP” value is on record as “UC”; the “MoI (mode of inhibition), Ki,CoA” value was “C”; the “MoI (mode of inhibition), Kis,acetate” value is reported as “UC”. The “MoI (mode of inhibition), Kis/Kii,acetate” value in test [1] (Table S6, fourth column (head printed MMV019721 MoI)) was “MI”. Moreover, the Ki in test [1] (setting [5]) stood at 200 ± 8 nM. Further, the Ki in test [1] (setting [6]) amounted to 22 ± 1 nM. Further, in test [1] (variable acetate, saturating ATP and CoA, linear uncompetitive, read-out: Ki versus acetate), the Ki came out at 150 ± 10 nM. Moreover, the “effect of conditional knockdown of PfACS11 on parasite sensitivity” value in test [2] is listed as “did not increase parasite sensitivity”. Moreover, in test [3], the IC50 is above 100 µM. Moreover, in test [4], the “Hill, AcAS WT” value came to 0.85 ± 0.04 and the half-inhibitory concentration (IC50) came to 73 ± 4 nM.

As for `O=C(NNC(=O)c1csnn1)c1ccc(Cl)cc1` [MMV084978], in test [1] (linear mixed inhibition, enzyme-substrate-inhibitor complex), the Kii against acetate is given as 390 ± 110 nM. The Ki in test [1] (linear mixed inhibition, free enzyme-inhibitor complex, read-out: Kis against acetate) came out at 30 ± 3 nM; in test [1] (setting [5]), 680 ± 26 nM; in test [1] (setting [6]) it was 690 ± 24 nM. In addition, in test [2], the “effect of conditional knockdown of PfACS11 on parasite sensitivity” value is “did not increase parasite sensitivity”. In addition, the “Hill, AcAS HsWT” value in test [3] is recorded as 0.85 ± 0.07. Besides, the IC50 stood at 18 ± 1.9 µM in test [3] and 370 ± 40 nM in test [4]. Also, the “Hill, AcAS WT” value in test [4] was determined as 0.85 ± 0.06.

These data come from article PMC8878317, “Chemogenomics identifies acetyl-coenzyme A synthetase as a target for malaria treatment and prevention” (Cell Chemical Biology, 2022).
